Source: patent US11459315B2, “Modulators of methyl modifying enzymes, compositions and uses thereof” (Constellation Pharmaceuticals, Inc., priority 2017, dated 2022)
Where two headings read alike, the source gives them in different places.

Legend:
[1] = system: H3K27me3 mark in HeLa cells (EZH2); experiment: H3K27me3 Alpha Hela Assay (AlphaLISA); format: cell-based; settings: HeLa cell assay, Table 3 classes, read-out: EC50 Cellular Activity
Outline: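 HeLa cells (1,000/well) treated with ten 3-fold compound doses for 72 h at 37 °C; lysates extracted and H3K27me3 detected by AlphaLISA with anti-K27me3 acceptor beads, biotinylated anti-H3 (3 nM) and streptavidin donor beads. EC50 from DMSO-normalized dose-response curves; duplicate plate assessed viability.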

PRC2 containing wt EZH2 = PRC2 containing wt EZH2 (Homo sapiens (Human), UniProt Q15910); experiment: EZH2 residence time assay (100-fold dilution of pre-formed enzyme-inhibitor complex); format: biochemical
Chain of PRC2 containing wt EZH2 (Q15910 whole entry): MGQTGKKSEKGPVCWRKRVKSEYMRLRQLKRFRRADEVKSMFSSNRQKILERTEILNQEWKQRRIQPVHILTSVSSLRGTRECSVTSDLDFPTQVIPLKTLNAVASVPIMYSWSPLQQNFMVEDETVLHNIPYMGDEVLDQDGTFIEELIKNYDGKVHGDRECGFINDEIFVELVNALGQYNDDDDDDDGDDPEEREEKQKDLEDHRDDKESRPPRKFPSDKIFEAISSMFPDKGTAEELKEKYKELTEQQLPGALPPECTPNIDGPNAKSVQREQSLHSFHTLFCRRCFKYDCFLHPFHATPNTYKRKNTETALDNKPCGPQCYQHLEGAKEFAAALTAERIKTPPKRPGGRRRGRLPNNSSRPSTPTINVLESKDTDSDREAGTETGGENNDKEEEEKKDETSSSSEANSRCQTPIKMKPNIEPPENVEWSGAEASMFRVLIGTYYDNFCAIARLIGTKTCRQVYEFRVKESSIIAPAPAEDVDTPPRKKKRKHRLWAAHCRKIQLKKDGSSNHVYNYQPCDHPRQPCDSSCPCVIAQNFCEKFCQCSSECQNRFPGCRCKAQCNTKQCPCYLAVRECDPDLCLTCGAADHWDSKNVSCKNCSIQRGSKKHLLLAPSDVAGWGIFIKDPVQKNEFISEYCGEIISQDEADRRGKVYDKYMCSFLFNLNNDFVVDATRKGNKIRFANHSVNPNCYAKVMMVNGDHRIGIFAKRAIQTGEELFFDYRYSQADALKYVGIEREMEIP
Chain of PRC2 containing wt EZH2 (O75530 whole entry partner): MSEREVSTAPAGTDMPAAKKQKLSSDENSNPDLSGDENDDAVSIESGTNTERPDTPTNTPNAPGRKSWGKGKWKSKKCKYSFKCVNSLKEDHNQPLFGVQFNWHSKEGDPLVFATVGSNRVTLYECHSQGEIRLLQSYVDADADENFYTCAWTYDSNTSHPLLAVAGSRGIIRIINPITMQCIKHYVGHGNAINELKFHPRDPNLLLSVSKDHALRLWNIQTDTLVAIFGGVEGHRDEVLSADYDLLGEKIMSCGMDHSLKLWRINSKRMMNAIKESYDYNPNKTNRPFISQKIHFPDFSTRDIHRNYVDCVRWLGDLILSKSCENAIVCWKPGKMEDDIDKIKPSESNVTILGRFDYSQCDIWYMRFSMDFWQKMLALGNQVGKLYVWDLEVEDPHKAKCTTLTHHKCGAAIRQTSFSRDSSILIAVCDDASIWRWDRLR
Chain of PRC2 containing wt EZH2 (Q15022 whole entry partner): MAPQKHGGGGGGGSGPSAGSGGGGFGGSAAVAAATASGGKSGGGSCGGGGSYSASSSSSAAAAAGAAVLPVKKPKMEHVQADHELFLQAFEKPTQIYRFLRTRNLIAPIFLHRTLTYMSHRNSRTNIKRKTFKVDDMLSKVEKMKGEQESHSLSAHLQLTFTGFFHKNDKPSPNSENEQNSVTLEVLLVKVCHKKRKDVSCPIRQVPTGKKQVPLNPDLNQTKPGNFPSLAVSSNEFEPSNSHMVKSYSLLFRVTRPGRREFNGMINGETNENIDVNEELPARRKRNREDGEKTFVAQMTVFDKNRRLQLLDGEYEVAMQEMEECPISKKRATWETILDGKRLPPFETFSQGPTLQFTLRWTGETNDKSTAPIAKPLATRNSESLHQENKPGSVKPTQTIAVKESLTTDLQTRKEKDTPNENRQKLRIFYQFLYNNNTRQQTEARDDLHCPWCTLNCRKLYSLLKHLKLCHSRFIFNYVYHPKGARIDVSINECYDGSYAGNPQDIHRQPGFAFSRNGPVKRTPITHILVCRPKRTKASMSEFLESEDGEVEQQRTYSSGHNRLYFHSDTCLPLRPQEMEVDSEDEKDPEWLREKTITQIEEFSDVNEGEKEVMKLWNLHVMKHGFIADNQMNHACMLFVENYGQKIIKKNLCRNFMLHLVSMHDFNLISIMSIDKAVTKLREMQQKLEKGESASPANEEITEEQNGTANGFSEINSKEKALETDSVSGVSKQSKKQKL
Chain of PRC2 containing wt EZH2 (Q09028 whole entry partner): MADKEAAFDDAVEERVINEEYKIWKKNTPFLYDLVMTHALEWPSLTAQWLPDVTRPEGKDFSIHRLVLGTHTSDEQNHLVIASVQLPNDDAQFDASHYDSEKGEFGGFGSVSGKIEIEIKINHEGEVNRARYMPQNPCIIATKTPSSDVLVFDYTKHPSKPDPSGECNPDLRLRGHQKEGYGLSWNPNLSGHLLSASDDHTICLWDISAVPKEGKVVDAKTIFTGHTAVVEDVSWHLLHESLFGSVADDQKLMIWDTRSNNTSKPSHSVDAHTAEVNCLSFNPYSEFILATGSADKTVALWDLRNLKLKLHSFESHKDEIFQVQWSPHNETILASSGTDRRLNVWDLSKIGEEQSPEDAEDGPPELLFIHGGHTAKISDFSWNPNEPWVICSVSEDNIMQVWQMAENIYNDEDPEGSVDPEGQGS
Chain of PRC2 containing wt EZH2 (Q6ZN18 whole entry partner): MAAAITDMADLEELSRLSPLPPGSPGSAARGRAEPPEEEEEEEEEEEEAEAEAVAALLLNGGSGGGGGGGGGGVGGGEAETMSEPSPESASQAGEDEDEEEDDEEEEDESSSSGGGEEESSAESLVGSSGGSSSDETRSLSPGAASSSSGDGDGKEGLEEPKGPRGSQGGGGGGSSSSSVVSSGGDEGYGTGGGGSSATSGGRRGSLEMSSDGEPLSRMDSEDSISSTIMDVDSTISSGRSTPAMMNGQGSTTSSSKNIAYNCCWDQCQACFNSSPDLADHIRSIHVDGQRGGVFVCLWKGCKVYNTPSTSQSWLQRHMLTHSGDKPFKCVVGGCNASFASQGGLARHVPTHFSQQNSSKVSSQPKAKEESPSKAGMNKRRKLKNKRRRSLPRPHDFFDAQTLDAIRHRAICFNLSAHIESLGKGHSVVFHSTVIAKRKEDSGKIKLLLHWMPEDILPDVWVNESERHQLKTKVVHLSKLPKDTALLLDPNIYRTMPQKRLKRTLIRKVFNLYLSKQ
Protocol: EZH2 residence time assay: Compound residence times were assessed by monitoring the recovery of enzyme activity following a 100-fold dilution of pre-formed enzyme-inhibitor complex (dilution reaction), and comparing it to the activity of an undiluted control with the same final concentrations of all reagents (control reaction). Enzyme activity was measured by incorporation of ^3H-SAM into a biotinylated H3 peptide. […] For the control reaction, 0.202 nM PRC2 was pre-incubated with 1 μM activating peptide, 1.01 μM SAM, 1.01 μM ^3H-SAM, and compound at 6.06 times its Ki for 2 h in 138.6 μL of buffer, then the reaction was initiated by the addition of 1.4 μL 500 μM substrate peptide in water. Reactions were quenched at various time points spanning up to 10 hours, by transferring 8 μL aliquots from the reaction vessel to a plate containing 8 μL per well of STOP solution (50 mM Tris pH 8.5, 200 mM EDTA, 2 mM SAH). After the last time point, 12 μL of the quenched solutions were transferred to a streptavidin coated FlashPlate (PerkinElmer) containing 40 μL per well of STOP solution, incubated 1-8 h, washed, and read in a TopCount plate reader (PerkinElmer). A custom script was used to fit control reaction progress data to a straight line and dilution reaction progress data:
Where y is the product formed, t is the reaction time, vi is the initial velocity, vs is the steady state velocity, and kobs is the rate constant for the transition from the initial velocity phase of the curve to the steady state velocity phase of the curve. In fitting the dilution reaction progress data, vs was constrained to the slope of the line fitted to the control reaction progress data. The fitted value of kobs was then transformed into residence time:
Where τ is residence time, Ki is the inhibition constant, [EI] is the calculated equilibrium concentration of enzyme-inhibitor complex, [E] is the calculated equilibrium concentration of free enzyme, and [I] is the calculated equilibrium concentration of free inhibitor.

Row | Compound | EC50 [1] [nM] | residence time (PRC2 containing wt EZH2) | EC50 ([1]; Homo sapiens, HeLa) [nM] | residence time (PRC2 containing wt EZH2; read-out: Residence Time) [min]
1 | COC1CCC([C@@H](C)n2c(C)c(C(=O)NCc3c(SC)cc(C)[nH]c3=O)c3ccccc32)CC1 (single isomer, unassigned) [drawing 248] | < 5 | > 2100 min | – | –
2 | CSc1cc(C)[nH]c(=O)c1CNC(=O)c1c(C)n([C@H](C)C2CCC(N3CC(F)C3)CC2)c2ccccc12 (single isomer, unassigned) [drawing 255] | 5 to 25 | C (a t value of greater than 0.5 hours but less or equal than 5 hours) | – | –
3 | Cc1cc(Cl)c(CNC(=O)c2c(C)n([C@H](C)C3OCC(NC4(C)COC4)CO3)c3ccccc23)c(=O)[nH]1 (single isomer, unassigned) [drawing 226] | 5 to 25 | B (a t value of greater than 5 hours but less or equal than 35 hours) | – | –
4 | CCSc1cc(C)[nH]c(=O)c1CNC(=O)c1c(C)n([C@H](C)C2CCN(CC(F)(F)F)CC2)c2ccccc12 [drawing 265] | – | < 30 min | 25 to 125 | –
5 | COC1CN(C2CCC([C@@H](C)n3c(C)c(C(=O)NCc4c(SC)cc(C)[nH]c4=O)c4ccccc43)CC2)C1 (single isomer, unassigned) [drawing 220] | 5 to 25 | C (a t value of greater than 0.5 hours but less or equal than 5 hours) | – | –
6 | CSc1cc(C)[nH]c(=O)c1CNC(=O)c1c(C)n([C@H](C)C2CCC(N3CC(F)C3)CC2)c2ccccc12 (single isomer, unassigned) [drawing 254] | – | A (value of greater than 35 hours) | < 5 | –
7 | CSc1cc(C)[nH]c(=O)c1CNC(=O)c1c(C)n([C@H](C)C2CCC(O)CC2)c2ccccc12 (single isomer, unassigned) [drawing 250] | – | B (a t value of greater than 5 hours but less or equal than 35 hours) | < 5 | –
8 | Cc1cc(Cl)c(CNC(=O)c2c(C)n([C@H](C)C3CCC(NC4COC4)CC3)c3ccccc23)c(=O)[nH]1 (single isomer, unassigned) [drawing 211] | > 125 | – | – | < 30
9 | COC1CN(C2CCC([C@@H](C)n3c(C)c(C(=O)NCc4c(Cl)cc(C)[nH]c4=O)c4ccccc43)CC2)C1 (single isomer, unassigned) | – | 30 to 300 min | 5 to 25 | –
10 | COC1CN(C2CCC([C@@H](C)n3c(C)c(C(=O)NCc4c(C)cc(C)[nH]c4=O)c4ccccc43)CC2)C1 (single isomer, unassigned) | – | 30 to 300 min | 5 to 25 | –
11 | COC1CN(C2CCC([C@@H](C)n3c(C)c(C(=O)NCc4c(SC5CC5)cc(C)[nH]c4=O)c4ccccc43)CC2)C1 (stereo partly drawn) [drawing 264] | – | 300 to 2100 min | 5 to 25 | –
12 | CSc1cc(C)[nH]c(=O)c1CNC(=O)c1c(C)n([C@H](C)C2CCC(N3CC(OC(F)F)C3)CC2)c2ncccc12 (single isomer, unassigned) | – | – | < 5 | 300 to 2100
13 | CSc1cc(C)[nH]c(=O)c1CNC(=O)c1c(C)n([C@H](C)C2CCC(NC3(C)CCOC3)CC2)c2ccccc12 (single isomer, unassigned) [drawing 269] | 5 to 25 | > 2100 min | – | –
14 | COc1cc(C)[nH]c(=O)c1CNC(=O)c1c(C)n([C@H](C)C2CCC(NC3COC3)CC2)c2ccccc12 (single isomer, unassigned) [drawing 207] | > 125 | – | – | < 30
15 | CSc1cc(C)[nH]c(=O)c1CNC(=O)c1c(C)n([C@H](C)C2CCOCC2)c2ccccc12 [drawing 247] | – | 30 to 300 min | < 5 | –
16 | CSc1cc(C)[nH]c(=O)c1CNC(=O)c1c(C)n([C@H](C)C2CCN(CC(C)(C)O)CC2)c2ccccc12 [drawing 240] | – | 300 to 2100 min | 25 to 125 | –
17 | CSc1cc(C)[nH]c(=O)c1CNC(=O)c1c(C)n([C@H](C)C2CCC(N3CC(OC4CC4)C3)CC2)c2ncccc12 (stereo partly drawn) | – | – | < 5 | 300 to 2100

Row | Compound | EC50 [1] [nM] | residence time (PRC2 containing wt EZH2) | EC50 ([1]; Homo sapiens, HeLa) [nM] | residence time (PRC2 containing wt EZH2; read-out: Residence Time) [min]
18 | Cc1cc(Cl)c(CNC(=O)c2c(C)n([C@H](C)C3OCC(NC(C)(C)C)CO3)c3ccccc23)c(=O)[nH]1 (single isomer, unassigned) [drawing 221] | – | – | 5 to 25 | 30 to 300
19 | COC1CN(C2CCC([C@@H](C)n3c(C)c(C(=O)NCc4c(SC)cc(C)[nH]c4=O)c4cccnc43)CC2)C1 (single isomer, unassigned) [drawing 259] | 5 to 25 | 300 to 2100 min | – | –
20 | COc1cc(C)[nH]c(=O)c1CNC(=O)c1c(C)n([C@H](C)C2CCN(CC(C)(C)O)CC2)c2ccccc12 | – | < 30 min | > 125 | –
21 | Cc1cc(C)c(CNC(=O)c2c(C)n([C@H](C)C3CCC(NC4(C)COC4)CC3)c3ccccc23)c(=O)[nH]1 (single isomer, unassigned) [drawing 204] | < 5 | B (a t value of greater than 5 hours but less or equal than 35 hours) | – | –
22 | CSc1cc(C)[nH]c(=O)c1CNC(=O)c1c(C)n([C@H](C)C2CCC(NC3(C(F)(F)F)COC3)CC2)c2ccccc12 (stereo partly drawn) | – | 300 to 2100 min | < 5 | –
23 | CSc1cc(C)[nH]c(=O)c1CNC(=O)c1c(C)n([C@H](C)C2OCC(N(C)C)CO2)c2ccccc12 (single isomer, unassigned) [drawing 231] | > 125 | D (a t value of less or equal than 0.5 hours) | – | –
24 | CSc1cc(C)[nH]c(=O)c1CNC(=O)c1c(C)n([C@H](C)C2CCC(NC3(C)COC3)CC2)c2ccccc12 (single isomer, unassigned) [drawing 206] | 5 to 25 | B (a t value of greater than 5 hours but less or equal than 35 hours) | – | –
25 | Cc1cc(C)c(CNC(=O)c2c(C)n([C@H](C)C34CC(NC5COC5)(C3)C4)c3ccccc23)c(=O)[nH]1 | – | – | 25 to 125 | < 30
26 | Cc1cc(Cl)c(CNC(=O)c2c(C)n([C@H](C)C3CCOCC3)c3ccccc23)c(=O)[nH]1 | – | < 30 min | 25 to 125 | –
27 | CSc1cc(C)[nH]c(=O)c1CNC(=O)c1c(C)n([C@H](C)C2CCN(CC(F)(F)F)CC2)c2ccccc12 [drawing 243] | – | 300 to 2100 min | < 5 | –
28 | COc1cc(C)[nH]c(=O)c1CNC(=O)c1c(C)n([C@H](C)C23CC(N(C)CC(F)(F)F)(C2)C3)c2ccccc12 | – | – | 25 to 125 | 30 to 300
29 | Cc1cc(Cl)c(CNC(=O)c2c(C)n([C@H](C)C3CCC(NC4(C)COC4)CC3)c3ccccc23)c(=O)[nH]1 (single isomer, unassigned) [drawing 202] | 5 to 25 | B (a t value of greater than 5 hours but less or equal than 35 hours) | – | –
30 | COc1cc(C)[nH]c(=O)c1CNC(=O)c1c(C)n([C@H](C)C2CCC(NC3COC3)CC2)c2ccccc12 (single isomer, unassigned) [drawing 208] | 25 to 125 | C (a t value of greater than 0.5 hours but less or equal than 5 hours) | – | –
31 | CSc1cc(C)[nH]c(=O)c1CNC(=O)c1c(C)n([C@H](C)C2OCC(N(C)C)CO2)c2ccccc12 (single isomer, unassigned) [drawing 232] | < 5 | B (a t value of greater than 5 hours but less or equal than 35 hours) | – | –
32 | Cc1cc(Cl)c(CNC(=O)c2c(C)n([C@H](C)C3OCC(N(C)C)CO3)c3ccccc23)c(=O)[nH]1 (single isomer, unassigned) [drawing 229] | > 125 | – | – | < 30
33 | Cc1cc(C)c(CNC(=O)c2c(C)n([C@H](C)C3CCN(CC(F)(F)F)CC3)c3ccccc23)c(=O)[nH]1 | – | < 30 min | 25 to 125 | –
